Kd data for nine compounds are collected here from ChEMBL document CHEMBL3991601, “The target landscape of clinical kinase drugs” (Science, 2017).

The target in assay [1] is T1, cGMP-dependent protein kinase 1 (Homo sapiens, UniProt Q13976).
T1 sequence (Q13976 whole entry): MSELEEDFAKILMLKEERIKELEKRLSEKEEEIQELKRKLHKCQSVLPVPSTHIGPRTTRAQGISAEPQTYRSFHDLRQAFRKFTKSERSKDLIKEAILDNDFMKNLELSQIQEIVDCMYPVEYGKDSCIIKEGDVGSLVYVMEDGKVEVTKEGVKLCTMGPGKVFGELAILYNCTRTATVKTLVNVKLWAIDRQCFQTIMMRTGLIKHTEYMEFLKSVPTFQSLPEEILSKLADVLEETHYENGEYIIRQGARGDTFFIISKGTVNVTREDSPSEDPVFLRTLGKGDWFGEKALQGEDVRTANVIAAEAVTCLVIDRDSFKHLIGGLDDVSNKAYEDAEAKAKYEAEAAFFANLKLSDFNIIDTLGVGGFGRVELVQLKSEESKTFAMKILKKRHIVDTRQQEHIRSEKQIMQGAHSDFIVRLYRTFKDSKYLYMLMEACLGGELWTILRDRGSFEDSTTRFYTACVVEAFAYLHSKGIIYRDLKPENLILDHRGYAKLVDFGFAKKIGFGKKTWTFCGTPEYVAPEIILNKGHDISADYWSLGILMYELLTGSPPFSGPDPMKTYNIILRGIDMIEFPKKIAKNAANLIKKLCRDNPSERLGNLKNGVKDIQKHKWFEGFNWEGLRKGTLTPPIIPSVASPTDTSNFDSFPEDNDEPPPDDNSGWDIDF

The target of assay [2] is Casein kinase I isoform alpha (Homo sapiens, UniProt P48729).
Assay [3] has as its target T2, Uncharacterized protein FLJ45252 (Homo sapiens, UniProt Q6ZSR9).
T2 sequence (Q6ZSR9 whole entry): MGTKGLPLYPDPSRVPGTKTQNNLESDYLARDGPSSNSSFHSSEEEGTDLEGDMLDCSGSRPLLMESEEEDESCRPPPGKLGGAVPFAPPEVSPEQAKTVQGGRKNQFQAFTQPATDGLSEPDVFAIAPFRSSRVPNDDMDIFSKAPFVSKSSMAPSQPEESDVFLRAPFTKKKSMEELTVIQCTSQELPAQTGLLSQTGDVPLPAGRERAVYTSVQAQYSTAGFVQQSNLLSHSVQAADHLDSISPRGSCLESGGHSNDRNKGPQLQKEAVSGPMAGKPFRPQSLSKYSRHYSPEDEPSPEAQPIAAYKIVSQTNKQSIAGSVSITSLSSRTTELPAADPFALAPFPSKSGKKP
To be noted: read-out: Kd apparent; k-562, colo 205, sk-n-be(2) and mv-4-11.

The target of assay [4] is Macrophage-stimulating protein receptor (Homo sapiens, UniProt Q04912).
Another assay has as its target Deoxycytidine kinase (Homo sapiens, UniProt P27707).
Assay [5] addresses AP2-associated protein kinase 1 (Homo sapiens, UniProt Q2M2I8).
Assay [6] concerns the target T3, Serine/threonine-protein kinase ICK (Homo sapiens, UniProt Q9UPZ9).
T3 sequence (Q9UPZ9 whole entry): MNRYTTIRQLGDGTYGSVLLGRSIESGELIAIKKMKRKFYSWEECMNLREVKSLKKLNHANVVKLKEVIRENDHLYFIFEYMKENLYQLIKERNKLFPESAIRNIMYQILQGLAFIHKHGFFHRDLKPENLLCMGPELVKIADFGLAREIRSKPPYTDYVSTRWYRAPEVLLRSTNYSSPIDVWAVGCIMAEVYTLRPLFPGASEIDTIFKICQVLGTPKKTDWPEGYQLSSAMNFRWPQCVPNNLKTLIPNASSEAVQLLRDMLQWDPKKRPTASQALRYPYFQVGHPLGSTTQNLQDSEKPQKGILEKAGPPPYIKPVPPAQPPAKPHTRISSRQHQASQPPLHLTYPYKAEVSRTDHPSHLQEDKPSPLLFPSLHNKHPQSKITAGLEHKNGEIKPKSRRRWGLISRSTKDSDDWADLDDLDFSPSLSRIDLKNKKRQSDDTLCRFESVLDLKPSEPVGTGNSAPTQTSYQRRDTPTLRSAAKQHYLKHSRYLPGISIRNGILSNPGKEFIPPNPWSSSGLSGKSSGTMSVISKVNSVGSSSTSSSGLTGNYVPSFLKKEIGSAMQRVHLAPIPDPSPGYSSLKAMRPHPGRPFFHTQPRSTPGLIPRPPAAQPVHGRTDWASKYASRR

Assay [7] addresses Cyclin-dependent kinase 3 (Homo sapiens, UniProt Q00526).
Assay [8] deals with T4, Interleukin-1 receptor-associated kinase 4 (Homo sapiens, UniProt Q9NWZ3).
T4 sequence (Q9NWZ3 whole entry): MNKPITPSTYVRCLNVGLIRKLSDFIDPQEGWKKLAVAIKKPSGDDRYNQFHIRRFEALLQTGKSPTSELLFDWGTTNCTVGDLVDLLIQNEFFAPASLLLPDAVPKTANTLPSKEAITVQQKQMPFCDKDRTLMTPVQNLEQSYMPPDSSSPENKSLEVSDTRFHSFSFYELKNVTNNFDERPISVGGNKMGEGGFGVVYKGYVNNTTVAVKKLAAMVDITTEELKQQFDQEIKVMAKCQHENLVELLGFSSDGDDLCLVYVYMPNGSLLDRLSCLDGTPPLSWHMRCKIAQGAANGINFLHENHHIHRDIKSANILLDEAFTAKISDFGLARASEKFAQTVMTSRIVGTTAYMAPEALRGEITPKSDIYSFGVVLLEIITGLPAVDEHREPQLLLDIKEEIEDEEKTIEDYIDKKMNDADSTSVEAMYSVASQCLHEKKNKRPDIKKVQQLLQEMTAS

Assay [9] addresses Ribosomal protein S6 kinase alpha-6 (Homo sapiens, UniProt Q9UK32).
Assay [10] deals with Mitotic checkpoint serine/threonine-protein kinase BUB1 (Homo sapiens, UniProt O43683).
Assay [11] has as its target T5, Dual specificity mitogen-activated protein kinase kinase 6 (Homo sapiens, UniProt P52564).
T5 sequence (P52564 whole entry): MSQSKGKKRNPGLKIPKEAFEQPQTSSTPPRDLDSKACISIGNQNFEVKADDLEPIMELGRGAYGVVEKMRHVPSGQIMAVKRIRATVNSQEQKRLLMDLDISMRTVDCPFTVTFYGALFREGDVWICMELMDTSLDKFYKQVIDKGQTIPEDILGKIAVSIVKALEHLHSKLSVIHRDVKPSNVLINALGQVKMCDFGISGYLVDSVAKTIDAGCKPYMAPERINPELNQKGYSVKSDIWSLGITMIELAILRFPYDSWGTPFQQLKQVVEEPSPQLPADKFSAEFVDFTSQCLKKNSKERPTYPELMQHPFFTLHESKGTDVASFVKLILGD

The source made the active and inactive calls. Cut-off read from the data, not from the text of the source, for most assays here: actives have a measured Kd and inactives only a lower limit.
Note: in the data inactive means no Kd found up to 30 µM.

Sequence of Casein kinase I isoform alpha (P48729 whole entry, canonical isoform): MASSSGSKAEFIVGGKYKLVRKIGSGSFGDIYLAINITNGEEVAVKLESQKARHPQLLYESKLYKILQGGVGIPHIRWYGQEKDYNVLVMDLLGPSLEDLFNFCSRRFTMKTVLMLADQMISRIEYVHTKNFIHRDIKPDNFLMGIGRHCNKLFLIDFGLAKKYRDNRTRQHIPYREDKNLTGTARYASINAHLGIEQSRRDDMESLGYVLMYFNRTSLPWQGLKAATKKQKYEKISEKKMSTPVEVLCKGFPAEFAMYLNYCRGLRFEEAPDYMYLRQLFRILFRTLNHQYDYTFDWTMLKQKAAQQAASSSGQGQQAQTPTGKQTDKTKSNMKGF
Sequence of Macrophage-stimulating protein receptor (Q04912 25-304 limits assumed): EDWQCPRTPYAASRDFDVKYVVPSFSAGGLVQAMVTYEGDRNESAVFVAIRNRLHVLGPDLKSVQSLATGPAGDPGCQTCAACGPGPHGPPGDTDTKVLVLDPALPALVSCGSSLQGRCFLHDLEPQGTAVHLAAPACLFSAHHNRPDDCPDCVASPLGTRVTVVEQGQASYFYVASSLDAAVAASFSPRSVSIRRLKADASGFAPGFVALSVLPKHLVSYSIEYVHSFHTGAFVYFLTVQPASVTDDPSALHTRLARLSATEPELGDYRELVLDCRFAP
Sequence of Macrophage-stimulating protein receptor (Q04912 310-1400 limits assumed): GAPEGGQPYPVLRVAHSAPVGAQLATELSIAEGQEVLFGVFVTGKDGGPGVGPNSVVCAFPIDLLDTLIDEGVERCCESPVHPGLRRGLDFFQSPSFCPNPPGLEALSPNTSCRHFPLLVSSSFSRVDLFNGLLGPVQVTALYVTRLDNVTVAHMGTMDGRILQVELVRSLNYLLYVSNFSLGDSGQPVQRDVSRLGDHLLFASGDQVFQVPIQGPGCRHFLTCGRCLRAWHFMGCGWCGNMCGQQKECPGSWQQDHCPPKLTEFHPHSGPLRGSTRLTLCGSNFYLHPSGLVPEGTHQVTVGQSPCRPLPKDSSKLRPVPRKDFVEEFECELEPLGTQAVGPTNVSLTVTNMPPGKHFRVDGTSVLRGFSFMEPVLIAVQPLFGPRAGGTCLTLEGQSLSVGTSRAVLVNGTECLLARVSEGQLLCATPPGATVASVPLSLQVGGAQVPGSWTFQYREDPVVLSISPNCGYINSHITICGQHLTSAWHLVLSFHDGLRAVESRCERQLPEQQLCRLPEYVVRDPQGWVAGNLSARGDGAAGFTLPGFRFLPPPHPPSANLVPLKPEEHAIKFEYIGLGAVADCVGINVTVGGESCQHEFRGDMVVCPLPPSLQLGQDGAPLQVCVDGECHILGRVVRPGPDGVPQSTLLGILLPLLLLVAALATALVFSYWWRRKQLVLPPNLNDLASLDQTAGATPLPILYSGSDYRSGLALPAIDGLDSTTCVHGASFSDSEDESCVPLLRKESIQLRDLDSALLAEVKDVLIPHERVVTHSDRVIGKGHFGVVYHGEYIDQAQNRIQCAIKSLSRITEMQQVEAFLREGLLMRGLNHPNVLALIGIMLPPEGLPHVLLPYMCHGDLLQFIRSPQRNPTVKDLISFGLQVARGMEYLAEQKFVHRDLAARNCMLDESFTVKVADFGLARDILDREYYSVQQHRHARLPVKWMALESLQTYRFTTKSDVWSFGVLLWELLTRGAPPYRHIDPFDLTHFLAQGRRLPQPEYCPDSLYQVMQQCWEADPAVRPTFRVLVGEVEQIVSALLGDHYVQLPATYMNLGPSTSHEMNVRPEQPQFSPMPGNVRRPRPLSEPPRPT
Sequence of Ribosomal protein S6 kinase alpha-6 (Q9UK32 whole entry): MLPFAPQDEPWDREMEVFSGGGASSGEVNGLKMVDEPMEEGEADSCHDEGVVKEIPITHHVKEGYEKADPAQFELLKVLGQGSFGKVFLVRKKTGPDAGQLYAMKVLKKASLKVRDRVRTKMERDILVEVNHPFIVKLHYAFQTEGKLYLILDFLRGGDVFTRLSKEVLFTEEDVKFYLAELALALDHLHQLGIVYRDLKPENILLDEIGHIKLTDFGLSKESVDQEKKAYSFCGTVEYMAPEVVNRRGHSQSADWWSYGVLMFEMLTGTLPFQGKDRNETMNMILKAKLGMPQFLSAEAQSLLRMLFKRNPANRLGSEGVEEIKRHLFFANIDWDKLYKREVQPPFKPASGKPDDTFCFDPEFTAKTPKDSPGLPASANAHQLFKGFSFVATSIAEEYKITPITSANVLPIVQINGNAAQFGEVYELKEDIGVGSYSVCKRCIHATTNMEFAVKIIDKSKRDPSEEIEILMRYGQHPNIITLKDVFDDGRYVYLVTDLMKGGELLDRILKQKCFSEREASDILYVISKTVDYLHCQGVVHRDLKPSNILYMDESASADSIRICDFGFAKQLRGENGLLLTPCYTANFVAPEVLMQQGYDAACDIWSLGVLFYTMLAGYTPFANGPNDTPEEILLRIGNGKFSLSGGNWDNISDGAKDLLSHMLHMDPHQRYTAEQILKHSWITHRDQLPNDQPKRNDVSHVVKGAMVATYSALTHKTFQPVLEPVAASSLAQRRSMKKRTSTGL
Sequence of Cyclin-dependent kinase 3 (Q00526 whole entry): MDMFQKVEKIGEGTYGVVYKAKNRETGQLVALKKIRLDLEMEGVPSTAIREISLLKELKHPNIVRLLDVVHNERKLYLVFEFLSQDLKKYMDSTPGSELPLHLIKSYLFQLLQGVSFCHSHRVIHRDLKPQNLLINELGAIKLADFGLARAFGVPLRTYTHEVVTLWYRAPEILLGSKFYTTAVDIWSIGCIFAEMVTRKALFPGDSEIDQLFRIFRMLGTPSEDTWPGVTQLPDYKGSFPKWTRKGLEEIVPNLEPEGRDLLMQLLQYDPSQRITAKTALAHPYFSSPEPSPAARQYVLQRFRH
Sequence of Mitotic checkpoint serine/threonine-protein kinase BUB1 (O43683 whole entry): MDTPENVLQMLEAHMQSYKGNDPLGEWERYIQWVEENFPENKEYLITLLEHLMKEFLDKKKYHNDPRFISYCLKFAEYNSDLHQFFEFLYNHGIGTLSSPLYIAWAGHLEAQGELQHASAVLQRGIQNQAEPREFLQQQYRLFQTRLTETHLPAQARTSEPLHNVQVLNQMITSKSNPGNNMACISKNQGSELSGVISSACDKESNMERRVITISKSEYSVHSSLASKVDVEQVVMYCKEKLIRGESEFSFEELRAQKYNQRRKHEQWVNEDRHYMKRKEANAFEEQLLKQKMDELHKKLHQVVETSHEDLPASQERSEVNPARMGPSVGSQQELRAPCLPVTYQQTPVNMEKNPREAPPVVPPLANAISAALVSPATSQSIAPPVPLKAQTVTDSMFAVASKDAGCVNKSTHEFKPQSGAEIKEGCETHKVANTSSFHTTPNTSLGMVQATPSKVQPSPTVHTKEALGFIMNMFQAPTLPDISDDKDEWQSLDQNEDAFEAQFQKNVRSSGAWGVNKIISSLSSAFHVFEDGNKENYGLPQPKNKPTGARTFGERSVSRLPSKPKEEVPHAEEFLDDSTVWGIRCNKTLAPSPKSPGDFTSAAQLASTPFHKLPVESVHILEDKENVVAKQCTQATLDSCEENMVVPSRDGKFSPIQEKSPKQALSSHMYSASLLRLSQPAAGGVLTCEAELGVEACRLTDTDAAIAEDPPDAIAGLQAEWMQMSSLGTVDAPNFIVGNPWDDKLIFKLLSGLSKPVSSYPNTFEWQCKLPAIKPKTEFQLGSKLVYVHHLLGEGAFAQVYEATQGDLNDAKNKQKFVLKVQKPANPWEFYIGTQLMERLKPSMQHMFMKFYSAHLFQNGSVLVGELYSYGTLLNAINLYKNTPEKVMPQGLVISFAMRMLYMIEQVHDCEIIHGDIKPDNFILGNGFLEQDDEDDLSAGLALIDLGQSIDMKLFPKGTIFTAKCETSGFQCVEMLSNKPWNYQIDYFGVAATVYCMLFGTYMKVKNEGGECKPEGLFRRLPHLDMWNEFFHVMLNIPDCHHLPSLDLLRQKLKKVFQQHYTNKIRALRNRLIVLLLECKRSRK
Sequence of Deoxycytidine kinase (P27707 whole entry): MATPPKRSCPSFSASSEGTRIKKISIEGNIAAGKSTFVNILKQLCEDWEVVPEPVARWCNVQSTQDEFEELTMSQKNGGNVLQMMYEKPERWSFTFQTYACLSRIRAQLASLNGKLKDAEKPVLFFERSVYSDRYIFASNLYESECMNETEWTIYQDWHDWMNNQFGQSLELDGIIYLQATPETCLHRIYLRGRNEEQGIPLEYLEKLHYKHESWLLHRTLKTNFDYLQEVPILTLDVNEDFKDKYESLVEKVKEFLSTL

Regarding `COc1ccc(-c2ccc3ncc4c(c3c2)n(-c2ccc(N3CCNCC3)c(C(F)(F)F)c2)c(=O)n4C)cn1` [BGT-226 FREE BASE], the Kd (in assay [1]; in assay [2]; in [3]; in assay [4]; on Deoxycytidine kinase; in [5]) was > 30 µM (inactive) in each case. Moreover, the Kd in [6], in assay [7], in [8], in [9], in [10] and in assay [11] was > 30 µM (inactive) throughout.

In the case of `CNC(=O)c1ccc(Nc2ncc(C(F)(F)F)c(NCc3nccnc3N(C)S(C)(=O)=O)n2)cc1` [DEFACTINIB], the Kd (in assay [1]; in assay [2]; in assay [3]; in assay [4]; at Deoxycytidine kinase; in assay [5]) was > 30 µM (inactive) throughout. Besides, the Kd in assay [6], in assay [7], in assay [8], in assay [9], in assay [10] and in assay [11] was > 30 µM (inactive) in each case.

For `Cc1cc(C(=O)Nc2cc(Oc3ccc4nc(NC(=O)C5CC5)cn4n3)ccc2C)n(C)n1` [TAK-593], the Kd in assay [1] is > 30 µM (inactive); in assay [2] it was > 30 µM (inactive); in assay [3], 0.869 µM (active); in [4] it was > 30 µM (inactive); at Deoxycytidine kinase, > 30 µM (inactive); in assay [5], 2.44 µM (active). The Kd in assay [6], in assay [7], in [8], in assay [9], in assay [10] and in assay [11] was > 30 µM (inactive) in each case.

In the case of `c1cc(OCCN2CCCCC2)cc(-c2n[nH]c3ccc(-c4nc[nH]n4)cc23)c1` [CC-401], the Kd in assay [1] is > 30 µM (inactive); in assay [2], 5.16 µM (active); in [3], 2.53 µM (active); in assay [4] it was > 30 µM (inactive); at Deoxycytidine kinase, > 30 µM (inactive); in assay [5], 2.61 µM (active). Moreover, the Kd in assay [6], in [7], in [8], in assay [9], in assay [10] and in [11] was > 30 µM (inactive) in each case.

On to `O=S(=O)(c1cccc2c(O)nccc12)N1CCCNCC1` [HYDROXYFASUDIL], for which the Kd (in assay [1]; in [2]; in assay [3]; in [4]; on Deoxycytidine kinase; in assay [5]) was > 30 µM (inactive) throughout. In addition, the Kd in [6], in [7], in [8], in assay [9], in assay [10] and in assay [11] was > 30 µM (inactive) throughout.

As to `Cc1c(Cn2c(C)nc3c(C(=O)O)cc(N4CCOCC4)cc32)cccc1C(F)(F)F` [GSK-2636771], the Kd (in assay [1]; in assay [2]; in [3]; in [4]; on Deoxycytidine kinase; in assay [5]) was > 30 µM (inactive) each time. Moreover, the Kd in [6], in [7], in assay [8], in assay [9], in [10] and in assay [11] was > 30 µM (inactive) throughout.

As to `COc1cc2ncnc(Nc3ccc(O)cc3)c2cc1OC` [WHI-P131], the Kd was > 30 µM (inactive) in assay [1]; > 30 µM (inactive) in assay [2]; 1.54 µM (active) in [3]; > 30 µM (inactive) in assay [4]; > 30 µM (inactive) on Deoxycytidine kinase; 1.07 µM (active) in assay [5]. Moreover, the Kd in assay [6] was > 30 µM (inactive); in assay [7], > 30 µM (inactive); in [8], 34.1 µM (active); in assay [9], 5.9 µM (active); in assay [10], > 30 µM (inactive); in [11] it was > 30 µM (inactive).

`Cn1c(=O)c(F)c(Nc2ccc(I)cc2F)c2c(=O)n(C[C@@H](O)CO)cnc21` [TAK-733]: the Kd (in [1]; in assay [2]; in assay [3]; in [4]; at Deoxycytidine kinase; in [5]) was > 30 µM (inactive) throughout. Besides, the Kd in [6], in assay [7], in assay [8], in assay [9], in assay [10] and in assay [11] was > 30 µM (inactive) throughout.

Take `Cn1cc(-c2[nH]c3cc(NC(=O)[C@H](N)C4CCCCC4)cc4c3c2C=NNC4=O)cn1`: the Kd is > 30 µM (inactive) in [1]; > 30 µM (inactive) in [2]; 0.002 µM (active) in [3]; > 30 µM (inactive) in assay [4]; > 30 µM (inactive) at Deoxycytidine kinase; 0.002 µM (active) in assay [5]. The Kd is > 30 µM (inactive) in assay [6]; > 30 µM (inactive) in assay [7]; 2.61 µM (active) in assay [8]; 2.38 µM (active) in assay [9]; > 30 µM (inactive) in assay [10]; > 30 µM (inactive) in assay [11].
